{"source": "paper PMC7932537", "about": "“Quantitative profiling of protease specificity” (PLoS Computational Biology, 2021)", "key": {"[1]": {"tested_on": "MMP-9", "assay": "Substrate phage display with NGS: relative probability (RP) of P3-P1' tetramer clusters", "format": "biochemical, human", "details": "for relative_probability: tetramer clusters unique to the MMP-9 selectome, MMP-9 RP"}, "[2]": {"tested_on": "MMP-2", "assay": "Substrate phage display with NGS: relative probability (RP) of P3-P1' tetramer clusters", "format": "biochemical, human", "details": "MMP2"}, "[3]": {"biological_target": "MMP-9 (Homo sapiens, UniProt P14780)", "sequence (P14780 94-707)": "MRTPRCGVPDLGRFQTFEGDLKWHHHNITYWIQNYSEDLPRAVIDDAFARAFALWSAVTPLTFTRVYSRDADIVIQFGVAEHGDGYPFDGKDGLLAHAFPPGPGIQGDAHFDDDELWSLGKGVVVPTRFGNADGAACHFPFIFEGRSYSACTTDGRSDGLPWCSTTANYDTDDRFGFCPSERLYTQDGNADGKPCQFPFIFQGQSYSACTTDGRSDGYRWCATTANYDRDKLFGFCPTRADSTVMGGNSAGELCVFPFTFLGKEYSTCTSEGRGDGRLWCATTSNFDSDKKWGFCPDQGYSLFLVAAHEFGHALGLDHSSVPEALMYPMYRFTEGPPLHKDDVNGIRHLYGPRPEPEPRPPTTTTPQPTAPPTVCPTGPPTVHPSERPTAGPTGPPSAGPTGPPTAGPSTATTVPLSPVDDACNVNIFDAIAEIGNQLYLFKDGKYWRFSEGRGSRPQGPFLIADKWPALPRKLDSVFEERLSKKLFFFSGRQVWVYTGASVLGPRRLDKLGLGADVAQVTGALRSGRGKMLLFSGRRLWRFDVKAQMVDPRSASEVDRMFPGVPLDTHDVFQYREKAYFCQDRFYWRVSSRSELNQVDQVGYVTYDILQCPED", "assay": "K(obs) of individual phage substrates (set of 1369)", "format": "biochemical", "details": "MMP9"}, "[4]": {"biological_target": "T1, MMP-2 (Homo sapiens, UniProt P08253)", "T1 sequence (P08253 110-660)": "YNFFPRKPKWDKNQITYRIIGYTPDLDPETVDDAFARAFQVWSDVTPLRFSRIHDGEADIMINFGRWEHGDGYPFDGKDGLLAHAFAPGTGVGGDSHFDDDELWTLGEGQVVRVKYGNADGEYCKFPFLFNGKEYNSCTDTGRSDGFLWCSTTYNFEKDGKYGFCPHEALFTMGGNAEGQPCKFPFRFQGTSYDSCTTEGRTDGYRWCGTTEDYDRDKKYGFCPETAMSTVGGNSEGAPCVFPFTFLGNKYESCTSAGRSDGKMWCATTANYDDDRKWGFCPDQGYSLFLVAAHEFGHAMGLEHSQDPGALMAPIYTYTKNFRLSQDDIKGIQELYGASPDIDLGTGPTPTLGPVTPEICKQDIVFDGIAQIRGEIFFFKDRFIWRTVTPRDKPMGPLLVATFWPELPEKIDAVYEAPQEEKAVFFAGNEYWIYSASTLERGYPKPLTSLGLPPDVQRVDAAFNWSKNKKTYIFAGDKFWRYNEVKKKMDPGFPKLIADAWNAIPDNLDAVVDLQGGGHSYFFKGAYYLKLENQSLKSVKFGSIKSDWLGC", "assay": "K(obs) of individual phage substrates (set of 1369)", "format": "biochemical", "details": "MMP2"}, "[5]": {"details": "tetramer projected onto MMP-9 cleavage sites determined by Prudova et al. (2010)"}, "[6]": {"details": "MMP9, RP of the P3-P1' tetramer matching the MS detected cleavage, RP above 4.7, substrate phage display with NGS"}, "[7]": {"details": "RP of the P3-P1' tetramer in MMP-9 substrate phage display/NGS, tetramer annotation of MMP-9 cleavage sites (octamers P4-P4') collected in MEROPS database"}, "[8]": {"details": "rank of the P3-P1' tetramer by RP in MMP-9 substrate phage display/NGS, tetramer annotation of MMP-9 cleavage sites (octamers P4-P4') collected in MEROPS database"}, "[9]": {"details": "RP according to MMP9, P3-P1' tetramer of unique physiologic MMP9 substrates from MEROPS"}, "[10]": {"details": "RP of the P3-P1' tetramer contained in the substrate"}, "[11]": {"details": "individual phage substrate of the set of 1369 peptides, dash in the sequence marks the cleavage position"}, "[12]": {"details": "individual phage substrate of the set of 1369 peptides, cleavage position marked by '-'"}, "[13]": {"details": "RP of the P3-P1' tetramer contained in the substrate (substrate phage display with NGS)"}, "[14]": {"details": "individual phage substrates, set of 1369 peptides, hyphen in sequence marks cleavage position"}, "[15]": {"details": "individual phage substrates, set of 1369 peptides, cleavage position marked by hyphen in sequence"}}}
{"substance": "PWAQ [P3-P1' tetramer cluster]", "values": [{"measurement": "relative_probability", "setting": "[1]", "result": 41.83}]}
{"substance": "VGSL [P3-P1' tetramer cluster]", "values": [{"measurement": "relative probability (RP)", "setting": "[1]; [5]", "result": 7.47}]}
{"substance": "PWWM [P3-P1' tetramer cluster]", "values": [{"measurement": "relative_probability", "setting": "[1]", "result": 45.99}]}
{"substance": "PMAA", "values": [{"measurement": "relative probability (RP)", "setting": "[1]; [6]", "result": 16.94}]}
{"substance": "PFAS", "values": [{"measurement": "relative probability (RP)", "setting": "[1]; [6]", "result": 24.05}]}
{"substance": "AAAA", "values": [{"measurement": "relative probability (RP)", "setting": "[1]; [7]", "result": 0.34}, {"measurement": "Relative probability (RP) rank", "setting": "[1]; [8]", "result": 31285}]}
{"substance": "PRGI [P3-P1' tetramer cluster]", "values": [{"measurement": "relative probability (RP)", "setting": "[1]; [5]", "result": 47.2}]}
{"substance": "AAAK", "values": [{"measurement": "relative probability (RP)", "setting": "[1]; [7]", "result": 0}, {"measurement": "Relative probability (RP) rank", "setting": "[1]; [8]", "result": 91823}]}
{"substance": "PAPL [P3-P1' tetramer cluster]", "values": [{"measurement": "relative probability (RP)", "setting": "[1]; [5]", "result": 46.24}]}
{"substance": "FFPF", "values": [{"measurement": "relative probability (RP)", "setting": "[1]; tetramer annotation of MMP-9 cleavage sites in physiologic substrates from MEROPS", "result": 0.33}]}
{"substance": "PKGE [P3-P1' tetramer cluster]", "values": [{"measurement": "relative probability (RP)", "setting": "[1]; [5]", "result": 0}]}
{"substance": "TITG", "values": [{"measurement": "Relative probability (RP) rank", "setting": "[1]; [9]", "result": 47886}, {"measurement": "relative probability (RP)", "setting": "[1]; [9]", "result": 0.16}]}
{"substance": "PMPL [P3-P1' tetramer cluster]", "values": [{"measurement": "relative probability (RP)", "setting": "[1]; tetramer probability in MMP9 set / naive library, 200 nM protease, 2 h, 37°C", "result": 51.2509}]}
{"substance": "TMNM", "values": [{"measurement": "relative probability (RP)", "setting": "[1]; [6]", "result": 6.67}]}
{"substance": "IYYI", "values": [{"measurement": "relative probability (RP)", "setting": "[1]; [6]", "result": 14.54}]}
{"substance": "AAAY", "values": [{"measurement": "relative probability (RP)", "setting": "[1]; [7]", "result": 22.04}, {"measurement": "Relative probability (RP) rank", "setting": "[1]; [8]", "result": 2070}]}
{"substance": "PFAV [P3-P1' tetramer cluster]", "values": [{"measurement": "relative probability (RP)", "setting": "[1]; [5]", "result": 43.58}]}
{"substance": "PRLV", "values": [{"measurement": "relative probability (RP)", "setting": "[1]; [6]", "result": 7.12}]}
{"substance": "PWWI [P3-P1' tetramer cluster]", "values": [{"measurement": "relative_probability", "setting": "[1]", "result": 43.44}]}
{"substance": "PDHL", "values": [{"measurement": "relative probability (RP)", "setting": "[1]; [6]", "result": 13.06}]}
{"substance": "GYARL-LRTAS", "values": [{"measurement": "relative probability (RP)", "setting": "[2]; [10]", "result": 1.104}, {"measurement": "Kobs", "setting": "[3]; [11]", "result": 690.17, "unit": "M⁻¹ s⁻¹"}, {"measurement": "Kobs", "setting": "[4]; [12]", "result": 484.315, "unit": "M⁻¹ s⁻¹"}]}
{"substance": "GDPYG-MRTAS", "values": [{"measurement": "relative probability (RP)", "setting": "[2]; [10]", "result": 27.2726}, {"measurement": "Kobs", "setting": "[3]; [11]", "result": 4922.1, "unit": "M⁻¹ s⁻¹"}, {"measurement": "Kobs", "setting": "[4]; [12]", "result": 3850.82, "unit": "M⁻¹ s⁻¹"}]}
{"substance": "GKLKH-LQTAS", "values": [{"measurement": "relative probability (RP)", "setting": "[2]; [13]", "result": 11.1441}, {"measurement": "Kobs", "setting": "[3]; [14]", "result": 0, "unit": "M⁻¹ s⁻¹"}, {"measurement": "Kobs", "setting": "[4]; [15]", "result": 726.013, "unit": "M⁻¹ s⁻¹"}]}
{"substance": "GRASH-LMTAS", "values": [{"measurement": "relative probability (RP)", "setting": "[2]; [13]", "result": 19.8208}, {"measurement": "Kobs", "setting": "[3]; [14]", "result": 726.013, "unit": "M⁻¹ s⁻¹"}, {"measurement": "Kobs", "setting": "[4]; [15]", "result": 4470.66, "unit": "M⁻¹ s⁻¹"}]}
{"substance": "GNSWG-LRTAS", "values": [{"measurement": "relative probability (RP)", "setting": "[2]; [10]", "result": 0.1389}, {"measurement": "Kobs", "setting": "[3]; [11]", "result": 690.17, "unit": "M⁻¹ s⁻¹"}, {"measurement": "Kobs", "setting": "[4]; [12]", "result": 292.668, "unit": "M⁻¹ s⁻¹"}]}
{"substance": "PVGI [P3-P1' tetramer cluster]", "values": [{"measurement": "relative probability (RP)", "setting": "[1]; [5]", "result": 46.04}]}
{"substance": "HGLWS-LTASG", "values": [{"measurement": "relative probability (RP)", "setting": "[2]; [13]", "result": 8.3838}, {"measurement": "Kobs", "setting": "[3]; [14]", "result": 1071.29, "unit": "M⁻¹ s⁻¹"}, {"measurement": "Kobs", "setting": "[4]; [15]", "result": 2097.28, "unit": "M⁻¹ s⁻¹"}]}
{"substance": "GLPTA-LRTAS", "values": [{"measurement": "relative probability (RP)", "setting": "[2]; [13]", "result": 32.8941}, {"measurement": "Kobs", "setting": "[3]; [14]", "result": 5667.28, "unit": "M⁻¹ s⁻¹"}, {"measurement": "Kobs", "setting": "[4]; [15]", "result": 12792.1, "unit": "M⁻¹ s⁻¹"}]}
{"substance": "GCPLS-LYTAS", "values": [{"measurement": "relative probability (RP)", "setting": "[2]; [13]", "result": 33.5282}, {"measurement": "Kobs", "setting": "[3]; [14]", "result": 6688.74, "unit": "M⁻¹ s⁻¹"}, {"measurement": "Kobs", "setting": "[4]; [15]", "result": 4335.13, "unit": "M⁻¹ s⁻¹"}]}
{"substance": "GIVKH-LQTAS", "values": [{"measurement": "relative probability (RP)", "setting": "[2]; [13]", "result": 14.8595}, {"measurement": "Kobs", "setting": "[3]; [14]", "result": 836.403, "unit": "M⁻¹ s⁻¹"}, {"measurement": "Kobs", "setting": "[4]; [15]", "result": 1711.63, "unit": "M⁻¹ s⁻¹"}]}
{"substance": "VNARM-LTASG", "values": [{"measurement": "relative probability (RP)", "setting": "[2]; [13]", "result": 2.9901}, {"measurement": "Kobs", "setting": "[3]; [14]", "result": 2218.08, "unit": "M⁻¹ s⁻¹"}, {"measurement": "Kobs", "setting": "[4]; [15]", "result": 1196.62, "unit": "M⁻¹ s⁻¹"}]}
{"substance": "VLWRA-LTASG", "values": [{"measurement": "relative probability (RP)", "setting": "[2]; [10]", "result": 22.4074}, {"measurement": "Kobs", "setting": "[3]; [11]", "result": 12792.1, "unit": "M⁻¹ s⁻¹"}, {"measurement": "Kobs", "setting": "[4]; [12]", "result": 12792.1, "unit": "M⁻¹ s⁻¹"}]}
{"substance": "SGPLG-IKSTA", "values": [{"measurement": "relative probability (RP)", "setting": "[2]; [13]", "result": 33.936}, {"measurement": "Kobs", "setting": "[3]; [14]", "result": 12792.1, "unit": "M⁻¹ s⁻¹"}, {"measurement": "Kobs", "setting": "[4]; [15]", "result": 12792.1, "unit": "M⁻¹ s⁻¹"}]}
{"substance": "IDTRW-YTASG", "values": [{"measurement": "relative probability (RP)", "setting": "[2]; [10]", "result": 6.7229}, {"measurement": "Kobs", "setting": "[3]; [11]", "result": 2344.36, "unit": "M⁻¹ s⁻¹"}, {"measurement": "Kobs", "setting": "[4]; [12]", "result": 3344.37, "unit": "M⁻¹ s⁻¹"}]}
{"substance": "RQVRY-LTASG", "values": [{"measurement": "relative probability (RP)", "setting": "[2]; [13]", "result": 18.3724}, {"measurement": "Kobs", "setting": "[3]; [14]", "result": 7015.91, "unit": "M⁻¹ s⁻¹"}, {"measurement": "Kobs", "setting": "[4]; [15]", "result": 8321.48, "unit": "M⁻¹ s⁻¹"}]}
{"substance": "VPWGN-LTASG", "values": [{"measurement": "relative probability (RP)", "setting": "[2]; [13]", "result": 14.7295}, {"measurement": "Kobs", "setting": "[3]; [14]", "result": 0, "unit": "M⁻¹ s⁻¹"}, {"measurement": "Kobs", "setting": "[4]; [15]", "result": 5461.43, "unit": "M⁻¹ s⁻¹"}]}
